How the values were obtained:
[1] = target: T1, Hypoxanthine-guanine phosphoribosyltransferase (Homo sapiens, UniProt P00492); test: Inhibition of human HGPRT
T1 sequence (P00492 whole entry): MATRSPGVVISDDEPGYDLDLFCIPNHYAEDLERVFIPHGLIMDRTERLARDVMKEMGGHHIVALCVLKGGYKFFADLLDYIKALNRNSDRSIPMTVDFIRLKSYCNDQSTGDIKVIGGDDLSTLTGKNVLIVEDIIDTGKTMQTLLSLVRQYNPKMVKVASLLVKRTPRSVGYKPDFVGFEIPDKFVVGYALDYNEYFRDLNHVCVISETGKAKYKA

[2] = Inhibition of Plasmodium falciparum HGXPRT
[3] = Inhibition of Plasmodium vivax HGPRT

Structure (SMILES)	Ki [1] [µM]	Ki [2] [µM]	Ki [3] [µM]
Nc1nc(O)c2ncn(COCCP(=O)(O)O)c2n1	31	5	24
O=c1[nH]cnc2c1ncn2COCCCCP(=O)(O)O	28	29	
O=c1[nH]cnc2c1ncn2COCCP(=O)(O)O	56	25	30
O=c1[nH]cnc2c1ncn2CCCCCCP(=O)(O)O	77	97	
O=P(O)(O)CCCCCn1cnc2c(O)ncnc21	> 100	21	
O=c1[nH]cnc2c1ncn2CCCCP(=O)(O)O	> 100	> 100	> 100
Nc1nc2c(ncn2CCCP(=O)(O)O)c(=O)[nH]1	> 100	> 100	> 100
Nc1nc2c(ncn2CP(=O)(O)O)c(=O)[nH]1	> 100	> 100	> 100
O=c1[nH]cnc2c1ncn2CCCP(=O)(O)O	> 100	> 100	> 100
O=c1[nH]cnc2c1ncn2CCCCCCCP(=O)(O)O	> 100	> 100	> 100
Nc1nc2c(ncn2CCP(=O)(O)O)c(=O)[nH]1	> 100	> 100	> 100

The next compounds have a lower Ki [1] than those just listed; values first:

Ki [1] [µM]	Structure (SMILES)	Ki [2] [µM]	Ki [3] [µM]
3	Nc1nc2c(ncn2COCCCP(=O)(O)O)c(=O)[nH]1	6.7	1
0.5	Nc1nc2c(ncn2CCCCCCP(=O)(O)O)c(=O)[nH]1	> 100	> 100
5	Nc1nc(O)c2ncn(CCCCCCCP(=O)(O)O)c2n1	10	
1.9	O=c1[nH]cnc2c1ncn2CP(=O)(O)O	> 100	> 100
0.4	Nc1nc(O)c2ncn(COCCCCP(=O)(O)O)c2n1	200	> 100
3.4	O=c1[nH]cnc2c1ncn2CCP(=O)(O)O	2.2	> 100
21	Nc1nc(O)c2ncn(CCCCP(=O)(O)O)c2n1	> 100	> 100
0.5	Nc1nc(O)c2ncn(CCCCCP(=O)(O)O)c2n1	2	6

From ChEMBL document CHEMBL1926609, “Synthesis of 9-phosphonoalkyl and 9-phosphonoalkoxyalkyl purines: evaluation of their ability to act as inhibitors of Plasmodium falciparum, Plasmodium vivax and human hypoxanthine-guanine-(xanthine) phosphoribosyltransferases” (Bioorg Med Chem, 2012)
